Earlier results in patent US9789078B2, “Method of topically treating actinic keratosis with ingenol mebutate cycle therapy” (LEO Laboratories Limited, priority 2012, dated 2017).
Where two headings read alike, the source gives them in different places.

Details: first treatment cycle, cited from earlier work

Question: What does the source list for `C/C=C(/C)C(=O)O[C@H]1C(C)=C[C@]23C(=O)[C@@H](C=C(CO)[C@@H](O)[C@]12O)[C@H]1[C@@H](C[C@H]3C)C1(C)C` [ingenol mebutate]?
Answer: time to resolution of local adverse events without sequelae (topical application to the face or scalp): ≤ 2 weeks; time to resolution of local adverse events without sequelae (topical application to the trunk or extremities): ≤ 4 weeks
